Results on one compound are retold here after patent publication US20110195111A1, “AQUEOUS COMPOSITIONS AND METHODS” (NATIVIS, INC., priority 2009, published 2011).

The subject of this test is U-87 glioblastoma cells. The test is described as follows: U-87 glioblastoma flank tumor growth in mice. It counts as in vivo. As to conditions: U-87 flank tumors in mice, 24-day period; untreated about 650 mm^3 (FIG. 11). The method, then:
The ability of water exposed to a taxane signal to inhibit a glioblastoma tumor in an animal model was investigated. In this study, nine groups of 8 mice were each injected in the right flank with 7.355×10^6 U-87 glioblastoma cells, and treatment with the various modalities was begun either one day after inoculating the animals with the cells, or when the tumors reached 75-100 mm^3.
Paclitaxel was initially dissolved in a 1:1 v/v mixture of CremaphorEL and ethanol and stored at 4° C. Final dilution of the drug to a concentration of 1.5 mg/ml was made with 0.9% NaCl immediately before use. In Groups 3 and 4, the paclitaxel was administered by intravenous injection into the tail vein at a dose of 15/mg/kg animal weight on each of five consecutive days. The actual volume administered to each animal was about 0.2 ml of the above paclitaxel formulation.
Animals in Groups 5 and 6 received 20 ml/kg (or about 0.5 ml) of water exposed to taxane signal prepared as described in Section VII, with the Range 1 magnetic field. […]
For all groups, tumor volumes were measured every other day by serial caliper measurements to determine tumor width and length, and calculating an approximate tumor volume from the formula: Tumor volume=(length×width^2)/2.

Structures are written as SMILES.

In the case of `CC(=O)O[C@H]1C(=O)[C@@]2(C)[C@H]([C@H](OC(=O)c3ccccc3)[C@]3(O)C[C@H](OC(=O)[C@H](O)[C@@H](NC(=O)c4ccccc4)c4ccccc4)C(C)=C1C3(C)C)[C@]1(OC(C)=O)CO[C@@H]1C[C@@H]2O` [paclitaxel], the “increase in tumor volume over the study period, untreated versus treated animals” value is “more than twice as high in untreated”.
